# Test results: patent US10821115B2, “Compounds that inhibit Mcl-1 protein” (priority 2017, dated 2020)
# How the values were obtained:
# [1] = target: recombinant human Mcl-1 (residues 171-327) / Bim interaction (Homo sapiens (Human), UniProt Q07820); assay: biochemical; type: binding; conditions: 0.1 nM Mcl-1(171-327), 0.05 nM biotin-Bim (51-76); read-out: Mcl-1 HTRF IC50
# [2] = tested on: human multiple myeloma cell line, OPM-2; assay: Cell viability assay (OPM-2 10 FBS), CellTiter-Glo; type: cell-based; conditions: Homo sapiens, OPM-2, 16 h, read-out: OPM-2 10% FBS IC50 IP, OPM-2 cells, 10% FBS, 16 h incubation
# Summary of the method: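 3000 cells/well, RPMI 1640 + 10% FBS; serial compound dilutions, 16 h, 37 °C/5% CO2.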
# Chain of recombinant human Mcl-1 (residues 171-327) / Bim interaction (Q07820 171-327): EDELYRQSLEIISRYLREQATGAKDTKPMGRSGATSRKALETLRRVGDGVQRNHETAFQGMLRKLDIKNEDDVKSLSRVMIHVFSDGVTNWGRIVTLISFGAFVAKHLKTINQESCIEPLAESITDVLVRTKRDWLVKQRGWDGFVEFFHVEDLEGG
SMILES,IC50 [1],IC50 [2]
"CO[C@@]1(CN2CC(C)(N(C)C)C2)/C=C/C[C@H](C)[C@@H](C)S(=O)(=O)NC(=O)c2ccc3c(c2)N(C[C@@H]2CC[C@H]21)C[C@@]1(CCCc2cc(Cl)ccc21)CO3 [Example 59, (1S,3′R,6′R,7′S,8′E,11′S,12′R)-6-chloro-7′-((3-(dimethylamino)-3-methyl-1-azetidinyl)methyl)-7′-methoxy-11′,12′-dimethyl-3,4-dihydro-2H,15′H-spiro[naphthalene-1,22′-[20]oxa[13]thia[1,14]diazatetracyclo [14.7.2.0~3,6~.0~19,24~]pentacosa[8,16,18,24]tetraen]-15′-one 13′,13′-dioxide]",0.116 nM,48 nM
"CO[C@]1(CN2CC(C)(N(C)C)C2)/C=C/C[C@H](C)[C@@H](C)S(=O)(=O)NC(=O)c2ccc3c(c2)N(C[C@@H]2CC[C@H]21)C[C@@]1(CCCc2cc(Cl)ccc21)CO3 [Example 60, (1S,3′R,6′R,7′R,8′E,11′S,12′R)-6-chloro-7′-((3-(dimethylamino)-3-methyl-1-azetidinyl)methyl)-7′-methoxy-11′,12′-dimethyl-3,4-dihydro-2H,15′H-spiro[naphthalene-1,22′-[20]oxa[13]thia[1,14]diazatetracyclo [14.7.2.0~3,6~.0~19,24~]pentacosa[8,16,18,24]tetraen]-15′-one 13′,13′-dioxide]",0.287 nM,129 nM
"COCCN1CCN(C[C@@]2(OC)/C=C/C[C@H](C)[C@@H](C)S(=O)(=O)NC(=O)c3ccc4c(c3)N(C[C@@H]3CC[C@H]32)C[C@@]2(CCCc3cc(Cl)ccc32)CO4)CC1 [Example 61, (1S,3′R,6′R,7′R,8′E,11′S,12′R)-6-chloro-7′-methoxy-7′-((4-(2-methoxyethyl)-1-piperazinyl)methyl)-11′,12′-dimethyl-3,4-dihydro-2H,15′H-spiro[naphthalene-1,22′-[20]oxa[13]thia[1,14]diazatetracyclo [14.7.2.0~3,6~.0~19,24~]pentacosa[8,16,18,24]tetraen]-15′-one 13′,13′-dioxide]",0.075 nM,124 nM
CO[C@]1(CN2CCN(C)CC2)/C=C/C[C@H](C)[C@@H](C)S(=O)(=O)NC(=O)c2ccc3c(c2)N(C[C@@H]2CC[C@H]21)C[C@@]1(CCCc2cc(Cl)ccc21)CO3 [Example 62],0.115 nM,110 nM
"CO[C@@]1(CN2CCN3C(=O)OC[C@@H]3C2)/C=C/C[C@H](C)[C@@H](C)S(=O)(=O)NC(=O)c2ccc3c(c2)N(C[C@@H]2CC[C@H]21)C[C@@]1(CCCc2cc(Cl)ccc21)CO3 [Example 63, (1S,3′R,6′R,7′S,8′E,11′S,12′R)-6-chloro-7′-methoxy-11′,12′-dimethyl-7′-(((8aS)-3-oxotetrahydro[1,3]oxazolo[3,4-a]pyrazin-7(1H)-yl)methyl)-3,4-dihydro-2H,15′H-spiro[naphthalene-1,22′-[20]oxa[13]thia[1,14]diazatetracyclo [14.7.2.0~3,6~.0~19,24~]pentacosa[8,16,18,24]tetraen]-15′-one 13′,13′-dioxide]",0.173 nM,582 nM
"CO[C@]1(CN2CCN3C(=O)OC[C@@H]3C2)/C=C/C[C@H](C)[C@@H](C)S(=O)(=O)NC(=O)c2ccc3c(c2)N(C[C@@H]2CC[C@H]21)C[C@@]1(CCCc2cc(Cl)ccc21)CO3 [Example 64, (1S,3′R,6′R,7′R,8′E,11′S,12′R)-6-chloro-7′-methoxy-11′,12′-dimethyl-7′-(((8aS)-3-oxotetrahydro[1,3]oxazolo[3,4-a]pyrazin-7(1H)-yl)methyl)-3,4-dihydro-2H,15′H-spiro[naphthalene-1,22′-[20]oxa[13]thia[1,14]diazatetracyclo [14.7.2.0~3,6~.0~19,24~]pentacosa[8,16,18,24]tetraen]-15′-one 13′,13′-dioxide]",0.126 nM,201 nM
"CNC[C@]1(OC)/C=C/C[C@H](C)[C@@H](C)S(=O)(=O)NC(=O)c2ccc3c(c2)N(C[C@@H]2CC[C@H]21)C[C@@]1(CCCc2cc(Cl)ccc21)CO3 [Example 65, (1S,3′R,6′R,7′S,8′E,11′S,12′R)-6-chloro-7′-methoxy-11′,12′-dimethyl-7′-((methylamino)methyl)-3,4-dihydro-2H,15′H-spiro[naphthalene-1,22′-[20]oxa[13]thia[1,14]diazatetracyclo [14.7.2.0~3,6~.0~19,24~]pentacosa[8,16,18,24]tetraen]-15′-one 13′,13′-dioxide]",0.451 nM,1500 nM
"CO[C@@]1(CN(C)C)/C=C/C[C@H](C)[C@@H](C)S(=O)(=O)NC(=O)c2ccc3c(c2)N(C[C@@H]2CC[C@H]21)C[C@@]1(CCCc2cc(Cl)ccc21)CO3 [Example 66, (1S,3′R,6′R,7′S,8′E,11′S,12′R)-6-chloro-7′-((dimethylamino)methyl)-7′-methoxy-11′,12′-dimethyl-3,4-dihydro-2H,15′H-spiro[naphthalene-1,22′-[20]oxa[13]thia[1,14]diazatetracyclo [14.7.2.0~3,6~.0~19,24~]pentacosa[8,16,18,24]tetraen]-15′-one 13′,13′-dioxide]",0.246 nM,318 nM
"CO[C@@]1(CN2CC(C)(C#N)C2)/C=C/C[C@H](C)[C@@H](C)S(=O)(=O)NC(=O)c2ccc3c(c2)N(C[C@@H]2CC[C@H]21)C[C@@]1(CCCc2cc(Cl)ccc21)CO3 [Example 67, 1-(((1S,3′R,6′R,7′S,8′E,11′S, 12′R)-6-chloro-7′-methoxy-11′,12′-dimethyl-13′,13′-dioxido-15′-oxo-3,4-dihydro-2H-spiro[naphthalene-1,22′-[20]oxa[13]thia[1,14]diazatetracyclo [14.7.2.0~3,6~.0~19,24~]pentacosa[8,16,18,24]tetraen]-7′-yl)methyl)-3-methyl-3-azetidinecarbonitrile]",0.197 nM,149 nM
"CO[C@@]1(CN2CCC=C(F)C2)/C=C/C[C@H](C)[C@@H](C)S(=O)(=O)NC(=O)c2ccc3c(c2)N(C[C@@H]2CC[C@H]21)C[C@@]1(CCCc2cc(Cl)ccc21)CO3 [Example 68, (1S,3′R,6′R,7′S,8′E,11′S,12′R)-6-chloro-7′-((5-fluoro-3,6-dihydro-1(2H)-pyridinyl)methyl)-7′-methoxy-11′,12′-dimethyl-3,4-dihydro-2H,15′H-spiro[naphthalene-1,22′-[20]oxa[13]thia[1,14]diazatetracyclo [14.7.2.0~3,6~.0~19,24~]pentacosa[8,16,18,24]tetraen]-15′-one 13′,13′-dioxide]",0.397 nM,1520 nM
"CO[C@]1(CN(C)C)/C=C/C[C@H](C)[C@@H](C)S(=O)(=O)NC(=O)c2ccc3c(c2)N(C[C@@H]2CC[C@H]21)C[C@@]1(CCCc2cc(Cl)ccc21)CO3 [Example 69, (1S,3′R,6′R,7′R,8′E,11′S,12′R)-6-chloro-7′-((dimethylamino)methyl)-7′-methoxy-11′,12′-dimethyl-3,4-dihydro-2H,15′H-spiro[naphthalene-1,22′-[20]oxa[13]thia[1,14]diazatetracyclo [14.7.2.0~3,6~.0~19,24~]pentacosa[8,16,18,24]tetraen]-15′-one 13′,13′-dioxide]",3.83 nM,1480 nM
"CNC[C@@]1(OC)/C=C/C[C@H](C)[C@@H](C)S(=O)(=O)NC(=O)c2ccc3c(c2)N(C[C@@H]2CC[C@H]21)C[C@@]1(CCCc2cc(Cl)ccc21)CO3 [Example 70, (1S,3′R,6′R,7′R,8′E,11′S,12′R)-6-chloro-7′-methoxy-11′,12′-dimethyl-7′-((methylamino)methyl)-3,4-dihydro-2H,15′H-spiro[naphthalene-1,22′-[20]oxa[13]thia[1,14]diazatetracyclo [14.7.2.0~3,6~.0~19,24~]pentacosa[8,16,18,24]tetraen]-15′-one 13′,13′-dioxide]",1.33 nM,3140 nM
"CO[C@]1(CN2CC(C)(C#N)C2)/C=C/C[C@H](C)[C@@H](C)S(=O)(=O)NC(=O)c2ccc3c(c2)N(C[C@@H]2CC[C@H]21)C[C@@]1(CCCc2cc(Cl)ccc21)CO3 [Example 71, 1-(((1S,3′R,6′R,7′R,8′E,11′S, 12′R)-6-chloro-7′-methoxy-11′,12′-dimethyl-13′,13′-dioxido-15′-oxo-3,4-dihydro-2H-spiro[naphthalene-1,22′-[20]oxa[13]thia[1,14]diazatetracyclo [14.7.2.0~3,6~.0~19,24~]pentacosa[8,16,18,24]tetraen]-7′-yl)methyl)-3-methyl-3-azetidinecarbonitrile]",0.371 nM,1140 nM
"CO[C@]1(CN2CCN(Cc3cscn3)CC2)/C=C/C[C@H](C)[C@@H](C)S(=O)(=O)NC(=O)c2ccc3c(c2)N(C[C@@H]2CC[C@H]21)C[C@@]1(CCCc2cc(Cl)ccc21)CO3 [Example 72, (1S,3′R,6′R,7′R,8′E,11′S,12′R)-6-chloro-7′-methoxy-11′,12′-dimethyl-7′-((4-(1,3-thiazol-4-ylmethyl)-1-piperazinyl)methyl)-3,4-dihydro-2H,15′H-spiro[naphthalene-1,22′-[20]oxa[13]thia[1,14]diazatetracyclo [14.7.2.0~3,6~.0~19,24~]pentacosa[8,16,18,24]tetraen]-15′-one 13′,13′-dioxide]",0.8 nM,185 nM
"CO[C@]1(CN2CCN(CCS(C)(=O)=O)CC2)/C=C/C[C@H](C)[C@@H](C)S(=O)(=O)NC(=O)c2ccc3c(c2)N(C[C@@H]2CC[C@H]21)C[C@@]1(CCCc2cc(Cl)ccc21)CO3 [Example 73, (1S,3′R,6′R,7′R,8′E,11′S,12′R)-6-chloro-7′-methoxy-11′,12′-dimethyl-7′-((4-(2-(methylsulfonyl)ethyl)-1-piperazinyl)methyl)-3,4-dihydro-2H,15′H-spiro[naphthalene-1,22′-[20]oxa[13]thia[1,14]diazatetracyclo [14.7.2.0~3,6~.0~19,24~]pentacosa[8,16,18,24]tetraen]-15′-one 13′,13′-dioxide]",0.609 nM,129 nM
